3 molecules from article PMC4354951 (European journal of medicinal chemistry, 2008) can be followed below.

The target of series [1] is T1, human NTPDase2 (Homo sapiens, UniProt Q9Y5L3).
T1 sequence (Q9Y5L3 1-495): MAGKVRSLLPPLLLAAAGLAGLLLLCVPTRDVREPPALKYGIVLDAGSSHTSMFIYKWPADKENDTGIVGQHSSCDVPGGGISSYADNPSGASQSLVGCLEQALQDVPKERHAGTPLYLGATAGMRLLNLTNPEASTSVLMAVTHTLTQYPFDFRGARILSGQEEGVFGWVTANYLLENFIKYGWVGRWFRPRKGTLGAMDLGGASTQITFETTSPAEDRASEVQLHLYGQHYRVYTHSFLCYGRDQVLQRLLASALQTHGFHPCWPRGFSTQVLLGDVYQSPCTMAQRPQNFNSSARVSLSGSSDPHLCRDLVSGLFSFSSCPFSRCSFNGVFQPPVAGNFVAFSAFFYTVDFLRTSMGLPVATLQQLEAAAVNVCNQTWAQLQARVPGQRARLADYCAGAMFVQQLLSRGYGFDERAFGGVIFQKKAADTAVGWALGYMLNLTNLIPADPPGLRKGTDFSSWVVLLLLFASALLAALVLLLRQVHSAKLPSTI
Put plainly: Hydrolysis by NTPDase2. The class given is biochemical. To be noted: 100 μM substrate; relative to ATP hydrolysis (100%).

A short description of series [2]: Chemical hydrolysis under gastric juice-like conditions. The format is physicochemical.
The target in series [3] is T2, human NPP1 (Homo sapiens, UniProt P22413).
T2 sequence (P22413 1-925): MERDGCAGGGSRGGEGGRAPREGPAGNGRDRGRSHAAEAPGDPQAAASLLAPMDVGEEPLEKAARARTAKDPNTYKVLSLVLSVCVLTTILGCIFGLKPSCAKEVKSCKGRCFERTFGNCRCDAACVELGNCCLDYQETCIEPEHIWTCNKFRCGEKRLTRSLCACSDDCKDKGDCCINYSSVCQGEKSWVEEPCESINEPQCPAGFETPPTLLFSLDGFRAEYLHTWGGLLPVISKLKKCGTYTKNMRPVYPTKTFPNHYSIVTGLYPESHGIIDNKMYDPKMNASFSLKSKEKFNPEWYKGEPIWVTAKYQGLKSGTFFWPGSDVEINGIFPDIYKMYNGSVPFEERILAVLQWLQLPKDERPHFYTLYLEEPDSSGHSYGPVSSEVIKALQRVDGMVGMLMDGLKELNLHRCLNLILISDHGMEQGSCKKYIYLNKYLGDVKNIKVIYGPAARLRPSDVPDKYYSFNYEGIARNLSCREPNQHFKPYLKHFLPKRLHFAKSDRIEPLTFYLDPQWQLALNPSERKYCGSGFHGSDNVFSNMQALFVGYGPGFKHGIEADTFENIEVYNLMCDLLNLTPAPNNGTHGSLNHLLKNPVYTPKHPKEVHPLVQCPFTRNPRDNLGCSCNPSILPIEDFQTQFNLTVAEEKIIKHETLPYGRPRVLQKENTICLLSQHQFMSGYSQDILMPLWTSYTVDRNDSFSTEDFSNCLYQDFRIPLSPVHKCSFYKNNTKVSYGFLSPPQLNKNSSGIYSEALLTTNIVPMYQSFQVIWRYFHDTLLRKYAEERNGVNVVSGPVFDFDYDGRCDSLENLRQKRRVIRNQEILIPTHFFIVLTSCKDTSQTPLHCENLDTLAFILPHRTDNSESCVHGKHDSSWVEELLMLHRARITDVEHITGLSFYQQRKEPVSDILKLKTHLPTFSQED
The experiment in a line: Hydrolysis by NPP1. The format is biochemical. To be noted: 100 μM substrate; relative to pnp-TMP hydrolysis (100%).

Series [4] deals with T3, human NTPDase8 (Homo sapiens, UniProt Q5MY95).
T3 sequence (Q5MY95 1-495): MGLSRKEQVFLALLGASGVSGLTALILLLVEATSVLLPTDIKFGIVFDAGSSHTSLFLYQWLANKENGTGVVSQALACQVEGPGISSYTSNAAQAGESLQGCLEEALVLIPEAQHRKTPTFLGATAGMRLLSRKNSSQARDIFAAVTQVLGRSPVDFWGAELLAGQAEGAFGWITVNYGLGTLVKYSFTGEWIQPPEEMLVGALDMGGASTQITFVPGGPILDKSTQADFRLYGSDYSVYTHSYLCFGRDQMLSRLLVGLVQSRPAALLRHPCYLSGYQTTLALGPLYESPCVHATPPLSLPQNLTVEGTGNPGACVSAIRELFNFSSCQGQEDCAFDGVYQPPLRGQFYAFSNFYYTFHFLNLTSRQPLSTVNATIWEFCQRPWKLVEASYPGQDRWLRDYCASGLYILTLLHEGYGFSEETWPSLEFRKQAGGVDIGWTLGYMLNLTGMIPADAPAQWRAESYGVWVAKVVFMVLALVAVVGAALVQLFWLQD
The experiment in a line: Hydrolysis by NTPDase8. To be noted: 100 μM substrate; relative to ATP hydrolysis (100%). The class given is biochemical.

Series [5] deals with human P2Y4 receptor (Homo sapiens, UniProt P51582). Put plainly: Increase in [Ca2+]i in 1321N1 astrocytoma cells expressing P2Y4 receptor. The format is cell-based. As to conditions: 1321N1 cell transfectants; for EC50: read-out: EC50 of analogue-induced increase in [Ca2+]i, P2Y4.
Series [6] is described as follows: Stability in human blood serum, Method B. As to conditions: Method B; 37 °C, up to 144 h.

Chain of human P2Y4 receptor (P51582 whole entry): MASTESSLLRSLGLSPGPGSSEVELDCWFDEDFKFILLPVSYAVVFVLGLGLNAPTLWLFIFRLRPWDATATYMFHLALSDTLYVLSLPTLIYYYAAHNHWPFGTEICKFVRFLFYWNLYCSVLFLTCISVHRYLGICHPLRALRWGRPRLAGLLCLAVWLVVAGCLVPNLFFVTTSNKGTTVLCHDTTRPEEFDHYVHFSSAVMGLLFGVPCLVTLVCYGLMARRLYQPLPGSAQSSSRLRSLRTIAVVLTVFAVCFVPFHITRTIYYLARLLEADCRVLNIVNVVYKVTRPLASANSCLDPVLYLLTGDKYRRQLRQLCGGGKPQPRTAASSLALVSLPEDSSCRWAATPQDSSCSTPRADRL

On to `[BH3-][P+](O)(OC[C@H]1O[C@@H](n2cnc3c(N)ncnc32)[C@H](O)[C@@H]1O)OP(=O)(O)CP(=O)(O)O` (single isomer, unassigned) [3B, Adenosine-5′-O-(α-boranotriphosphate)-β,γ-CH2], for which the “Relative activity of NTPDase2” value in series [1] is listed as 0%. Also, the fraction degraded in series [2] (0.2 M HCl/KCl pH 1.4, 37 °C, after 19 h) is 50%. Also, the “t1/2 of acidic hydrolysis” value in series [2] (KCl/HCl buffer pH 1.4, 37 °C, 31P NMR (2) or HPLC-MS (3B, 4B)) worked out at 19 h. Besides, the “Relative activity of NPP1” value in series [3] worked out at 4.0 ± 0.12%. Also, the “Relative activity of NTPDase8” value in series [4] is listed as less than 1%. Also, in series [5], the “agonist activity at P2Y4R” value is recorded as “insignificant activities” and the 50% effective concentration (EC50) is more than 100 µM.

With `[BH3-][P+](O)(OC[C@H]1O[C@@H](n2cnc3c(N)ncnc32)[C@H](O)[C@@H]1O)OP(=O)(O)CP(=O)(O)O` (single isomer, unassigned) [3A, Adenosine-5′-O-(α-boranotriphosphate)-β,γ-CH2], the “Relative activity of NTPDase2” value in series [1] is recorded as 1.0 ± 0.2%. Besides, the “Relative activity of NPP1” value in series [3] came to 0%. For the same molecule, the “Relative activity of NTPDase8” value in series [4] came to 2.0 ± 0.03%. Moreover, in series [5], the “agonist activity at P2Y4R” value was “insignificant activities” and the EC50 was more than 100 µM.

Consider `[BH3-][P+](O)(OC[C@H]1O[C@@H](n2cnc3c(N)nc(SC)nc32)[C@H](O)[C@@H]1O)OP(=O)(O)CP(=O)(O)O` (single isomer, unassigned) [4A, 2-MeS–adenosine-5′-O-(α-boranotriphosphate)-β,γ-CH2], for which the “Relative activity of NTPDase2” value in series [1] is 1.0 ± 0.1%. In addition, the “Relative activity of NPP1” value in series [3] is reported as 0%. For the same molecule, the “Relative activity of NTPDase8” value in series [4] is given as 4.0 ± 0.02%. The “resistance to enzymatic hydrolysis in human blood serum” value in series [6] is on record as “completely resistant to enzymatic hydrolysis for at least 6 days”. In addition, in series [5], the “agonist activity at P2Y4R” value is listed as “insignificant activities” and the 50% effective concentration (EC50) is more than 100 µM.
